# In PMC4815068, “A phase I study of high-dose rosuvastatin with standard dose erlotinib in patients with advanced solid malignancies” (Journal of Translational Medicine, 2016):
# “Also recorded” adds a separate entry of the source. Like-named read-outs stand apart in the source and are kept apart here. Marks after values point to notes of the source that are not given here.
# How the values were obtained:
# [1] = Pharmacokinetic analysis of serum levels by LC/MS/MS
# Method: Pharmacokinetic analysis of erlotinib serum levels was undertaken at day 6 (erlotinib alone) and at day 14 (erlotinib and 1 mg/kg/day rosuvastatin treatments) and rosuvastatin at the day 14 timepoint of cycle 1 in 6 study patients (Schedule A). On day 6 and 14 serum erlotinib levels and day 14 serum rosuvastatin levels were determined at 2 h intervals for a full 24 h after drug treatments. The analysis of rosuvastatin and erlotinib was performed by a validated liquid chromatography mass spectrometry/mass spectrometry (LC/MS/MS) method. Protein precipitation (plasma: 50/50 acetonitrile/[…] 1:2) was used for sample preparation before injecting to HPLC for separation. Rosuvastatin, erlotinib and internal standard (IS), 6,7-Dimethyl-2,3-di(2-pyridyl)-quinoxaline (DMDPQ) was eluted by HPLC (Accela, Thermo) using a gradient mobile phase [0.2 % Formic acid (V:V), and 100 % methanol]. […] Detection was done by tandem Mass spectrometer (TSQ Quantum Access MAX, Thermo) with electrospray ionization in positive mode. The multiple reaction monitoring (MRM) was be used to detect specific precursor ion to product ion transitions for rosuvastatin (m/s 482.3/258.1), erlotinib (m/s 394.3/336.2), and IS (m/s 313.2/91.2), respectively. Xcalibur and TSQ Tune master software (Thermo) was used as the system controller and integrator.
# [2] = system: patients with solid tumors; details: weekly regimen, lovastatin monotherapy; cited from earlier work
# recurrent SCC patients = details: cited from earlier work
# advanced solid tumours = assay: Tumor response (RECIST) and days on study; format: in vivo, human
# Method: Physical examinations occurred at the start of each cycle and radiological tumor evaluations were completed after every 2 cycles. Tumor response was assessed using response evaluation criteria in solid tumors (RECIST) criteria. […] In these cases, the patient went off protocol treatment. […] Similar strategies were employed for other toxicities as well. […] This study was conducted according to Good Clinical Practice.
# CYP3A4 = details: cited from earlier work
# [3] = system: patients with advanced solid tumours
# Method: This was a single-center, phase I open-label study to determine the safety and RPTD of rosuvastatin in combination with the standard clinical dose of erlotinib (150 mg/day) in patients with advanced solid tumours. […] Eight cohorts from 1 to 8 mg/kg/day rosuvastatin given concurrently with standard dose erlotinb in 28-day cycles were planned. […] Patients received therapy until evidence of disease progression, the development of serious or unmanageable adverse events (SAE), or until study withdrawal. Clinically or radiological documented disease and an ECOG performance status of 0, 1 or 2 was also required. All study patients had adequate hematogical, hepatic and renal functions at baseline. Adequate hematological function was defined as hemoglobin ≥90 g/L, absolute granulocyte count ≥1.5 × 10^9/L and platelet counts ≥100 × 10^9/L. Biochemical parameters for hepatic function included; total bilirubin <1.5× the upper limit of normal (ULN) and ALT/AST <1.5× ULN. […] Any anticholesterol agents were discontinued at least 7 days prior to starting the trial.
# Erlotinib was provided by Roche Canada and was administered orally in tablet form at a standard daily dose of 150 mg. […] The starting dose of rosuvastatin was 1 mg/kg/day with the dose of rosuvastatin increasing in a step-wise manner in escalating doses of 1 mg/kg/day. […] During cycle-1 of the dose escalation, treatment with rosuvastin was administered as follows: 1 week off, then daily for 2 weeks, then 1 week off. […] Doses were rounded to the nearest 5 mg since rosuvastatin is available in 5, 10, 20 and 40 mg tablets (purchased from AstraZeneca, Canada). Oral administration of rosuvastatin was once daily if daily dose was <80 mg, twice if 81–160 mg, three times a day if 161–240 mg and four times a day if >240 mg daily dose. […] No prophylactic medications were supplied. Standard supportive care medications were allowed. Oral supplementation of ubiquinone at 60 mg po QID was initiated if patient developed grade 3 or 4 muscle toxicity and continued until recovery to baseline.
# A 3 + 3 dose escalation phase I study design was used, with 3 patients planned at each cohort. […] All 3 patients at a given dose level needed to complete the first cycle of treatment without suffering DLT before new patients were enrolled at the next dose level. The lead patient at each new dose level completed the first cycle of treatment before other patients were enrolled at the same dose level. If 1/3 initial patients at each dose experienced a DLT, then the treatment level was expanded to at least 6 patients. […] There was no dose escalations allowed within individual patients. If >2 patients at any dose level experienced DLT, then that level was considered to have exceeded the maximal tolerated dose (MTD), and the level immediately preceding that level was designated as MTD and RPTD.
# [4] = On-study laboratory evaluations (CPK, cholesterol, LDL, HDL); format: in vivo, human
# Method: Patients had weekly laboratory evaluations for hematogical, hepatic and renal functions and biochemical changes including creatine and creatine phosphokinase (CPK) and fasting total cholesterol, HDL and LDL during cycle 1 and at the start of each subsequent cycle. Physical examinations occurred at the start of each cycle and radiological tumor evaluations were completed after every 2 cycles. Tumor response was assessed using response evaluation criteria in solid tumors (RECIST) criteria.
# NSCLC patients = system: NSCLC patients; design: method as in PMID 21411446; details: hypercholesterolemia dose of simvastatin daily with standard dose gefitinib, SCC patients; cited from earlier work
# [5] = concurrent rosuvastatin + erlotinib
compound,measurement,setting,value
C#Cc1cccc(Nc2ncnc3cc(OCCOC)c(OCCOC)cc23)c1 [erlotinib],Tmax,"[1]; erlotinib (+rosuvastatin 1 mg/kg/day) (day 14), individual Schedule A patients 14-18",6 h
same,Tmax,"[1]; erlotinib alone (day 6), 150 mg/day, individual Schedule A patients 13-18",6 h
same,Half-life of erlotinib on addition of rosuvastatin,"[1]; human, in vivo",unaffected
same,half-life,"[1]; human, in vivo, 150 mg/day",18.1 h
same,half-life,"[1]; human, in vivo, 150 mg/day, t 1/2, erlotinib alone (day 6), 150 mg/day, individual Schedule A patients 13-18",25.7 h
same,half-life,"[1]; human, in vivo, t1/2",24.3 h
same,"Erlotinib AUC, day 6 (alone) versus day 14 (+rosuvastatin)",[1]; in vivo,did not differ significantly
same,"Erlotinib Cmax and Tmax, day 6 versus day 14 (+rosuvastatin)",[1]; in vivo,similar
same,Plasma erlotinib levels on addition of rosuvastatin,[1]; in vivo,unaffected
CC[C@H](C)C(=O)O[C@H]1C[C@@H](C)C=C2C=C[C@H](C)[C@H](CC[C@@H]3C[C@@H](O)CC(=O)O3)[C@H]21 [lovastatin],Clinical efficacy as an anticancer therapy,[2],failed to demonstrate clinical efficacy
same,DLT of lovastatin,"recurrent SCC patients; prolonged oral administration, recurrent SCC",reversible muscle toxicity
same,Patients with disease stabilization lasting greater than 3 months,"recurrent SCC patients; single agent lovastatin, SCC patients",23%
same,Dose-limiting muscle toxicities greater than grade 2 in severity,"recurrent SCC patients; single agent lovastatin, of the 5 patients with muscle DLT",2
same,Patients with reversible dose-limiting muscle toxicities,"recurrent SCC patients; single agent lovastatin, of the 24 patients enrolled",5 patients
CC(C)c1nc(N(C)S(C)(=O)=O)nc(-c2ccc(F)cc2)c1/C=C/[C@@H](O)C[C@@H](O)CC(=O)O [rosuvastatin],"Patients with durable stable disease, NSCLC",advanced solid tumours; [5],2/4
same,"Patients with durable stable disease, genitourinary (GU) cancer (vaginal squamous epithelial carcinoma)",advanced solid tumours; [5],1/4
same,"Patients with durable stable disease, pancreatic cancer (neuroendocrine tumour)",advanced solid tumours; [5],1/2
same,Evaluable patients on study for greater than 170 days,"advanced solid tumours; concurrent rosuvastatin + erlotinib (Cohorts 1, 2 and Schedule A)",4/16
same,Patients on study for greater than 275 days,"advanced solid tumours; concurrent rosuvastatin + erlotinib, 16 evaluable",3 patients
same,Durable stable disease for more than 170 days (rate),"advanced solid tumours; concurrent rosuvastatin + erlotinib, evaluable for response n = 16",25%
same,Patients with disease stabilization greater than 6 months,"advanced solid tumours; concurrent treatment regimens, rosuvastatin + erlotinib",4/16
same,Objective responses (RECIST),"advanced solid tumours; rosuvastatin + erlotinib, 22 evaluable patients",No objective responses; also recorded: absence of objective responses
same,CYP3A4 substrate,CYP3A4; ref 32,non-CYP3A4 substrate
same,CYP3A4 substrate,CYP3A4; ref 33,not a CYP3A4 substrate
same,"Anorexia, ≥Grade 2","[3]; human, in vivo",62.5%
same,"Anxiety, ≥Grade 2","[3]; human, in vivo",4.2%
same,"Diarrhea, ≥Grade 2","[3]; human, in vivo",20.8%
same,"Fatigue, ≥Grade 2","[3]; human, in vivo",75.0%
same,"Muscle weakness, ≥Grade 2","[3]; human, in vivo",41.7%
same,"Myalgia, ≥Grade 2","[3]; human, in vivo",29.2%
same,"Nausia, ≥Grade 2","[3]; human, in vivo",16.7%
same,"Rash, ≥Grade 2","[3]; human, in vivo",29.2%
same,"Rhabdomyolysis, ≥Grade 2","[3]; human, in vivo",4.2^a %
same,"Vomiting, ≥Grade 2","[3]; human, in vivo",16.7%
same,"Weight loss, ≥Grade 2","[3]; human, in vivo",16.7%
same,Patients who developed rhabdomyolysis (study related death),"[3]; rosuvastatin 2 mg/kg/day + erlotinib, 8 evaluable patients",single patient out of 8
same,Patients with elevated CPK levels during rosuvastatin treatments,[4]; 1 mg/kg/day dose + erlotinib,1 out of 16
same,Patients with elevated CPK levels during rosuvastatin treatments,[4]; 2 mg/kg/day dose (Cohort 2) + erlotinib,4 out of the 8
same,Serum CPK level in the patient with rhabdomyolysis,"[4]; day 28 (erlotinib and rosuvastatin 2 mg/kg/day), increased from 60 U/L",over 2000 U/L
same,"Change in serum cholesterol, LDL or HDL levels","[4]; rosuvastatin + erlotinib, even in patients on study greater than 170 days",did not result in significant changes
CCC(C)(C)C(=O)O[C@H]1C[C@@H](C)C=C2C=C[C@H](C)[C@H](CC[C@@H]3C[C@@H](O)CC(=O)O3)[C@H]21 [simvastatin],Response rates and PFS compared to gefitinib alone,NSCLC patients,higher response rates and longer PFS
